Assay results from ChEMBL document CHEMBL1150976, “The selectivity of protein kinase inhibitors: a further update” (Biochem J, 2007).

Tests used:
[1] = molecular target: Serine/threonine-protein kinase PAK 5 (Homo sapiens) (UniProt Q9P286); test: Percentage PAK5 activity remaining in the presence of 0.01uM inhibitor
[2] = molecular target: Serine/threonine-protein kinase pim-2 (Homo sapiens, UniProt Q9P1W9); test: Percentage PIM2 activity remaining in the presence of 0.01uM inhibitor
[3] = molecular target: Calcium/calmodulin-dependent protein kinase kinase 1 (Homo sapiens) (UniProt Q8N5S9); test: Percentage CaMKKalpha activity remaining in the presence of 0.01uM inhibitor
[4] = molecular target: Serine/threonine-protein kinase Nek6 (Homo sapiens) (UniProt Q9HC98); test: Percentage NEK6 activity remaining in the presence of 0.01uM inhibitor
[5] = molecular target: Serine/threonine-protein kinase Nek7 (Homo sapiens) (UniProt Q8TDX7); test: Percentage NEK7 activity remaining in the presence of 0.01uM inhibitor
[6] = molecular target: Serine/threonine-protein kinase PLK1 (Homo sapiens, UniProt P53350); test: Percentage PLK1 activity remaining in the presence of 0.01uM inhibitor
[7] = molecular target: Protein kinase C alpha type (Homo sapiens) (UniProt P17252); test: Percentage PKCalpha activity remaining in the presence of 0.01uM inhibitor
[8] = molecular target: Mitogen-activated protein kinase 3 (Homo sapiens) (UniProt P27361); test: Percentage ERK1 activity remaining in the presence of 0.01uM inhibitor
[9] = molecular target: Serine/threonine-protein kinase pim-3 (Homo sapiens, UniProt Q86V86); test: Percentage PIM3 activity remaining in the presence of 0.01uM inhibitor
[10] = molecular target: Mitogen-activated protein kinase 9 (Homo sapiens, UniProt P45984); test: Percentage JNK2 activity remaining in the presence of 0.01uM inhibitor
[11] = molecular target: Ribosomal protein S6 kinase alpha-5 (Homo sapiens) (UniProt O75582); test: Percentage MSK1 activity remaining in the presence of 0.01uM inhibitor
[12] = molecular target: T1, Serine/threonine-protein kinase Chk1 (Homo sapiens) (UniProt O14757); test: Percentage CHK1 activity remaining in the presence of 0.01uM inhibitor
T1 sequence (whole entry): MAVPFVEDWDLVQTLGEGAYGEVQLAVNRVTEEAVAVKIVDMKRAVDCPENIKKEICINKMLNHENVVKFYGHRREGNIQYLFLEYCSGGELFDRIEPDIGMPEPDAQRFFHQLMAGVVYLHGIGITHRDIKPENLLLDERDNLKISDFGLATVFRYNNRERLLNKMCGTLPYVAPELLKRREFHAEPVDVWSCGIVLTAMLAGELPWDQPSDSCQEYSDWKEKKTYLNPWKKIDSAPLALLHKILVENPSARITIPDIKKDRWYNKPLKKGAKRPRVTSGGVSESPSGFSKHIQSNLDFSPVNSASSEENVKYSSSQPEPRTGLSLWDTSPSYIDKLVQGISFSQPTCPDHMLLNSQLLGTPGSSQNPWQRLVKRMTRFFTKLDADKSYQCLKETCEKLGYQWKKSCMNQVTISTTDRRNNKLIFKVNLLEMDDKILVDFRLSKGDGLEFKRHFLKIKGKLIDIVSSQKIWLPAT

[13] = molecular target: T2, Dual specificity tyrosine-phosphorylation-regulated kinase 3 (Homo sapiens) (UniProt O43781); test: Percentage DYRK3 activity remaining in the presence of 0.01uM inhibitor
T2 sequence (whole entry): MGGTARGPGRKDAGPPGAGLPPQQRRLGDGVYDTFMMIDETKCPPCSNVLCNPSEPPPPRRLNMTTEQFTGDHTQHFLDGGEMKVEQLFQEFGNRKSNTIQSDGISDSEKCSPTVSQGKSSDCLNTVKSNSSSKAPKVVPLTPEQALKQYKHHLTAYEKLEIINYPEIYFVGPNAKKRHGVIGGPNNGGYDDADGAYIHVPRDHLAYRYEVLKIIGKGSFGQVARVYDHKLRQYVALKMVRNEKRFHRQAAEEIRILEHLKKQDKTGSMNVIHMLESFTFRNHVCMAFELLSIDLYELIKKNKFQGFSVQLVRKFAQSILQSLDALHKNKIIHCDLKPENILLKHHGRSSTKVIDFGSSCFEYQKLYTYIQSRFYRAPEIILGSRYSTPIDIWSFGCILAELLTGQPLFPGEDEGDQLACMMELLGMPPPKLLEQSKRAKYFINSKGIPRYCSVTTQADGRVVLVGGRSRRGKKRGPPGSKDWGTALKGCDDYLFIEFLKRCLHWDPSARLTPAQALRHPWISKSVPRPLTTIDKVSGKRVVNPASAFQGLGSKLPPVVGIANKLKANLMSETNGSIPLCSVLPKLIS

[14] = molecular target: Glycogen synthase kinase-3 beta (Homo sapiens, UniProt P49841); test: Percentage GSK3-beta activity remaining in the presence of 0.01uM inhibitor
[15] = molecular target: T3, Serine/threonine-protein kinase BRSK2 (Homo sapiens) (UniProt Q8IWQ3); test: Percentage BRSK2 activity remaining in the presence of 0.01uM inhibitor
T3 sequence (whole entry): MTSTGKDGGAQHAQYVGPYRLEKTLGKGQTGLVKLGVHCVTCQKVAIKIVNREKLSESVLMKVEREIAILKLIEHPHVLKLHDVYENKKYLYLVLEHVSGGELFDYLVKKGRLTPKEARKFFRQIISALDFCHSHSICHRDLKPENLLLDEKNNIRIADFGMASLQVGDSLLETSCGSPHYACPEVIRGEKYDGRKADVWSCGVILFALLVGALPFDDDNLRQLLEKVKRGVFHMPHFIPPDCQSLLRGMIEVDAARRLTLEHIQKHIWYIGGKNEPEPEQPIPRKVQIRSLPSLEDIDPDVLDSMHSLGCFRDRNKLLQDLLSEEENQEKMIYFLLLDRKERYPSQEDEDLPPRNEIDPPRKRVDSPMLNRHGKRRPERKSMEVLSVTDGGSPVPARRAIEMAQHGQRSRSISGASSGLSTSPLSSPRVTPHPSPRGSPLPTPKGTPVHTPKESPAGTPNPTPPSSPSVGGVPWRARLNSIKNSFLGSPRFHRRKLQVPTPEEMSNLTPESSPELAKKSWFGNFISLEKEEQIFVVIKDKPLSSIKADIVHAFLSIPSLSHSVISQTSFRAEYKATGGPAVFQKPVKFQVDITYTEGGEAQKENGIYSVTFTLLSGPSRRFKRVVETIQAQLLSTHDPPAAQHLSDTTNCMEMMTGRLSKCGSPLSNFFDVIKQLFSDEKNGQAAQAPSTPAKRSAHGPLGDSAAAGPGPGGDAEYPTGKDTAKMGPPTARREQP

[16] = molecular target: Calcium/calmodulin-dependent protein kinase type 1 (Homo sapiens) (UniProt Q14012); test: Percentage CaMK1 activity remaining in the presence of 0.01uM inhibitor
Homo sapiens = species on record: Homo sapiens; test: Percentage PHK activity remaining in the presence of 0.01uM inhibitor
[17] = molecular target: MAP kinase-interacting serine/threonine-protein kinase 1 (Homo sapiens) (UniProt Q9BUB5); test: Percentage MNK1 activity remaining in the presence of 0.01uM inhibitor
[18] = molecular target: Proto-oncogene tyrosine-protein kinase Src (Gallus gallus) (UniProt P00523); test: Percentage Src activity remaining in the presence of 0.01uM inhibitor

Chain of MAP kinase-interacting serine/threonine-protein kinase 1 (Homo sapiens) (Q9BUB5 whole entry, looked up): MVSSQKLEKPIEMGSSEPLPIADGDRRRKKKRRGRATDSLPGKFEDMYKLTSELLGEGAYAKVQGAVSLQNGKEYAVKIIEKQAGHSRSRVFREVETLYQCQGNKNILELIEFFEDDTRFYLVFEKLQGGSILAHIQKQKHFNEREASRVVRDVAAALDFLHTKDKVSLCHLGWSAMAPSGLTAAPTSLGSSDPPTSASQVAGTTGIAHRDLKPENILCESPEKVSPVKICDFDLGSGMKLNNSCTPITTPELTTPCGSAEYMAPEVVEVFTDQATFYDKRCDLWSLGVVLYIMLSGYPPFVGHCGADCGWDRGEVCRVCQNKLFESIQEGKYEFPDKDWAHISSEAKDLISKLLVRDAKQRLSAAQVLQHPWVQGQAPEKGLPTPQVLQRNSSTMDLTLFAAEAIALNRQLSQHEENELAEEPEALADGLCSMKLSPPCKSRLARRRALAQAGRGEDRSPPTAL
Chain of Glycogen synthase kinase-3 beta (P49841 whole entry, looked up): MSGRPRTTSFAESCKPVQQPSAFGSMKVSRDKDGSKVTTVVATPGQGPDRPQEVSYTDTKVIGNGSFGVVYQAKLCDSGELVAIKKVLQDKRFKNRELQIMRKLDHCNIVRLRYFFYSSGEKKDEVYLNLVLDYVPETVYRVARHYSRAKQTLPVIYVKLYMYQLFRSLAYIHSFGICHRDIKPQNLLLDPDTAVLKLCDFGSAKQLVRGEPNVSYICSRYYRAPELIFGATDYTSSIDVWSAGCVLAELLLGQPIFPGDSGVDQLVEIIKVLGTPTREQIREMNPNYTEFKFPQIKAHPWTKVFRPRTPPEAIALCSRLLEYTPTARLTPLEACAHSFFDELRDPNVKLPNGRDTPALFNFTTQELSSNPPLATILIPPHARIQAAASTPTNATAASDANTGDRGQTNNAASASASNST
Chain of Mitogen-activated protein kinase 9 (P45984 whole entry, looked up): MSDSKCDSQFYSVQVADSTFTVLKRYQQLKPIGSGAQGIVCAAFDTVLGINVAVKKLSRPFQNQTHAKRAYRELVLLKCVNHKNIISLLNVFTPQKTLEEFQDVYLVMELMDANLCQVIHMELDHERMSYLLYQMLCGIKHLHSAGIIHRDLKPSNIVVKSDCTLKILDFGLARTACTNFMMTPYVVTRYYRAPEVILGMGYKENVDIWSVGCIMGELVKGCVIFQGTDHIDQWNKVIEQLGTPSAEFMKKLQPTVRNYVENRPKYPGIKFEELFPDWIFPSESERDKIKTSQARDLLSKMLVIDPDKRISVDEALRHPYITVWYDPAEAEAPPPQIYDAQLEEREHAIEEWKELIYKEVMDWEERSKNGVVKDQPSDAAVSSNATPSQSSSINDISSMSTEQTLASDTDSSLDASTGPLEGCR
Chain of Mitogen-activated protein kinase 3 (Homo sapiens) (P27361 whole entry): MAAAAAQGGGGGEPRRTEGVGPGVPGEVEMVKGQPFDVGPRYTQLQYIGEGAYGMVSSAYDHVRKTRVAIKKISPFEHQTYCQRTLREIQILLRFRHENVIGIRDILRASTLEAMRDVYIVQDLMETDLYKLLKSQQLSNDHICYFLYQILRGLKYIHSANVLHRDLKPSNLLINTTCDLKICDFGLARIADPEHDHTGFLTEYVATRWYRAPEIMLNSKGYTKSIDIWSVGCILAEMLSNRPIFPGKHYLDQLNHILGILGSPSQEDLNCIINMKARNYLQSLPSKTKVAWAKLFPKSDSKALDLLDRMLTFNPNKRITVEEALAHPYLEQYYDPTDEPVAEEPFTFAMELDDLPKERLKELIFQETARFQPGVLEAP
Chain of Calcium/calmodulin-dependent protein kinase kinase 1 (Homo sapiens) (Q8N5S9 whole entry, looked up): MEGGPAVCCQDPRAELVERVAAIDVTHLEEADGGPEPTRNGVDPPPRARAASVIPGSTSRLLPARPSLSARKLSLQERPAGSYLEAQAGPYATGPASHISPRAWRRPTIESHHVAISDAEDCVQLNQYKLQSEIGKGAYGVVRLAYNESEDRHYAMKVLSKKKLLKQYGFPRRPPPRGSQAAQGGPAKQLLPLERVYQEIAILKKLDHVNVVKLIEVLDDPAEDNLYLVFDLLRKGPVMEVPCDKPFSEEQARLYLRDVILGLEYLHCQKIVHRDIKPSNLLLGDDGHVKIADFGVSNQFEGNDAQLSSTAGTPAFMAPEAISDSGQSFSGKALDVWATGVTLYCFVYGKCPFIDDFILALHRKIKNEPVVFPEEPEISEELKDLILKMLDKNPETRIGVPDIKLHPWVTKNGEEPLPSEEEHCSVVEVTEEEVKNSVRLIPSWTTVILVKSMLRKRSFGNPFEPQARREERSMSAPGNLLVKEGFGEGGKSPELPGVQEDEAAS
Chain of Serine/threonine-protein kinase pim-2 (Q9P1W9 whole entry, looked up): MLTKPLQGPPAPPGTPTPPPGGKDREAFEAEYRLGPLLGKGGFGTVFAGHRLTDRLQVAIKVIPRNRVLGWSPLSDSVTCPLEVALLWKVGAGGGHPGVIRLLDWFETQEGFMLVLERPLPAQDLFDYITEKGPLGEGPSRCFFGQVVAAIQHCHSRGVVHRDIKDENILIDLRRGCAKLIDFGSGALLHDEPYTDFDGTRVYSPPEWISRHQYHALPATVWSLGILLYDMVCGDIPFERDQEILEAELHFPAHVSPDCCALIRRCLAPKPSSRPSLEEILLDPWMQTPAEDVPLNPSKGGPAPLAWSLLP
Chain of Ribosomal protein S6 kinase alpha-5 (Homo sapiens) (O75582 whole entry, looked up): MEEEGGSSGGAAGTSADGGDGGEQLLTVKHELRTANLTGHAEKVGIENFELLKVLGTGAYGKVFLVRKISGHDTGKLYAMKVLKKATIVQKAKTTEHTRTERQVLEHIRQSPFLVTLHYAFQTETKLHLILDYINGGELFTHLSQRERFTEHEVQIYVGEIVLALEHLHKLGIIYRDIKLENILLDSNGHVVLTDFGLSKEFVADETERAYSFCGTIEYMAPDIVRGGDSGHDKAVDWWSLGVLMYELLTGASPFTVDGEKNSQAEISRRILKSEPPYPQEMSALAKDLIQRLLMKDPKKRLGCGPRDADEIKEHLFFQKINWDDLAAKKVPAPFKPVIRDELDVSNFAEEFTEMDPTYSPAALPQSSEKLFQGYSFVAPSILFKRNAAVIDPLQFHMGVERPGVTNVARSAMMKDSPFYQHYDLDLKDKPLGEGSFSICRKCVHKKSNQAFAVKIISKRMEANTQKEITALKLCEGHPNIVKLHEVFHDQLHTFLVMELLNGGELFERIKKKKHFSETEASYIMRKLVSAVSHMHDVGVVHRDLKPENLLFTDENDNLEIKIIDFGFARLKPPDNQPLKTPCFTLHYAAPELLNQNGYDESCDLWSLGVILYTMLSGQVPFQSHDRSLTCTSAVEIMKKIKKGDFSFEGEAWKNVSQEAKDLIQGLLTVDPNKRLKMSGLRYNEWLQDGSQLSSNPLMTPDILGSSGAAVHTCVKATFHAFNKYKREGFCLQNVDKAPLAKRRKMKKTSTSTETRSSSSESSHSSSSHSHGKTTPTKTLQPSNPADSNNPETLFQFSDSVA
Chain of Calcium/calmodulin-dependent protein kinase type 1 (Homo sapiens) (Q14012 whole entry, looked up): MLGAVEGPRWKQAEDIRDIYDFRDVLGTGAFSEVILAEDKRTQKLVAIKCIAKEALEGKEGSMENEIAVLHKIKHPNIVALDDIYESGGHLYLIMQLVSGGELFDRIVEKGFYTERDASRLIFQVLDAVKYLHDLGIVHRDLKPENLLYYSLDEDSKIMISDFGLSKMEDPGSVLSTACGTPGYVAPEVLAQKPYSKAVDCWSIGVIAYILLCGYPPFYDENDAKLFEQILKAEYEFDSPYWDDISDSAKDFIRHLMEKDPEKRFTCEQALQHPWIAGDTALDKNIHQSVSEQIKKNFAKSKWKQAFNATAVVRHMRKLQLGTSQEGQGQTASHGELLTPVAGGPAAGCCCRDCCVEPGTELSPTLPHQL
Chain of Serine/threonine-protein kinase PLK1 (P53350 whole entry): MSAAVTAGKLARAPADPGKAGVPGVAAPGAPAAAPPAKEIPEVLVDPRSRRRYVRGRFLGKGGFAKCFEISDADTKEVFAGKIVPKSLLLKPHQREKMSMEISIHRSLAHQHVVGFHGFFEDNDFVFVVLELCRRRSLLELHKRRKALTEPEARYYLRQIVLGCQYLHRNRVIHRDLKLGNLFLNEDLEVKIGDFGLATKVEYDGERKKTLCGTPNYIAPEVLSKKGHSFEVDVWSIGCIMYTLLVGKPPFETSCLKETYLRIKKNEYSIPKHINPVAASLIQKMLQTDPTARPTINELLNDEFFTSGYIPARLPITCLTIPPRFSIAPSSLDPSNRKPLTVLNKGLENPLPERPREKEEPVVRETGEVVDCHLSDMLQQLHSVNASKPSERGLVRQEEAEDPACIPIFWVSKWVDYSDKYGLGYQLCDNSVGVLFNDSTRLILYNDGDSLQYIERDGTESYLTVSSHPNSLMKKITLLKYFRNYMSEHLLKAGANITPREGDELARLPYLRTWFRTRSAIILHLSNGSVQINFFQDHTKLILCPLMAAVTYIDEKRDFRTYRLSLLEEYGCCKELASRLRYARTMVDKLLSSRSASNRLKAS

O=C(NCCCNc1nc(Nc2cccc(NC(=O)N3CCCC3)c2)ncc1I)c1cccs1
Activity [1]: 97%
Activity [2]: 108%
Activity [3]: 86%
Activity [4]: 96%
Activity [5]: 111%
Activity [6]: 95%
Activity [7]: 105%
Activity [8]: 82%
Activity [9]: 96%
Activity [10]: 101%
Activity [11]: 88%
Activity [12]: 84%
Activity [13]: 85%
Activity [14]: 82%
Activity [15]: 92%
Activity [16]: 86%
Activity (Homo sapiens): 94%
Activity [17]: 80%
Activity [18]: 90%

Cc1n[nH]c2ccc(-c3cncc(OC[C@@H](N)Cc4c[nH]c5ccccc45)c3)cc12
Activity [1]: 104%
Activity [2]: 59%
Activity [3]: 112%
Activity [4]: 95%
Activity [5]: 86%
Activity [6]: 89%
Activity [7]: 73%
Activity [8]: 77%
Activity [9]: 54%
Activity [10]: 94%
Activity ([11]; filed as antagonist): 19%
Activity [12]: 100%
Activity ([13]; filed as antagonist): 41%
Activity [14]: 81%
Activity [15]: 88%
Activity [16]: 89%
Activity (Homo sapiens): 86%
Activity [17]: 120%
Activity [18]: 91%

CN[C@@H]1C[C@H]2O[C@@](C)([C@@H]1OC)n1c3ccccc3c3c4c(c5c6ccccc6n2c5c31)C(=O)N[C@H]4O (stereo in doubt)
Activity ([1]; filed as antagonist): 36%
Activity [2]: 73%
Activity [3]: 58%
Activity [4]: 104%
Activity [5]: 99%
Activity [6]: 76%
Activity ([7]; filed as antagonist): 6%
Activity [8]: 112%
Activity ([9]; filed as antagonist): 8%
Activity [10]: 92%
Activity [11]: 68%
Activity ([12]; filed as antagonist): 12%
Activity [13]: 84%
Activity [14]: 77%
Activity ([15]; filed as antagonist): 27%
Activity [16]: 86%
Activity (Homo sapiens; filed as antagonist): 5%
Activity [17]: 85%
Activity [18]: 76%
